Source: patent US6509355B1, “Treatment of disorders of the outer retina” (Alcon Laboratories, Inc., priority 1998, dated 2003)

Columns and labels:
[1] = system: light induced functional or morphological changes; test: Light damage paradigms (light induced damage paradigm); details: in vivo
Description: Eliprodil was evaluated in our light induced damage paradigm, a model of retinal degenerative diseases such as retinitis pigmentosa and age-related macular degeneration.

[2] = system: photo-oxidative induced retinopathy; test: Photo-oxidative induced retinopathy: 6-hour blue light exposure, ERG after 5-day recovery
Excerpt: Photic retinopathy results from excessive excitation of the retinal pigment epithelium and neuroretina by absorption of visible or near ultraviolet radiation. Lesion severity is dependent upon wavelength, irradiance, exposure duration, species, ocular pigmentation, and age. Damage may result from peroxidation of cellular membranes, inactivation of mitochondrial enzymes such as cytochrome oxidase, or increased intracellular calcium. Cellular damage resulting from photo-oxidative stress leads to cell death by apoptosis, (Shahinfar, S., Edward. D. P. and Tso, M. O. (1991), A pathologic study of photoreceptor cell death in retinal photic injury. Current Eye Research, 10:47-59: Abler, A. S., Chang, C. J., Fu, J. and Tso, M. O. (1994), Photic injury triggers apoptosis of photoreceptor cells. Investigative Ophthalmology & Visual Science, 35(Suppl):1517). Oxidative stress induced apoptosis has been implicated as a cause of many ocular pathologies, including, iatrogenic retinopathy, macular degeneration, retinitis pigmentosa and other forms of heredodegenerative disease, ischemic retinopathy, retinal tears, retinal detachment, glaucoma and retinal neovascularization (Chang, C. J., Lai, W. W., Edward, D. P. and Tso, M. O. (1995), Apoptotic photoreceptor cell death after traumatic retinal detachment in humans, Archives of Ophthalmology, 113:880-886: Portera-Cailliau, C., Sung, C. H., Nathans, J. and Adler, R. (1994), Apoptotic photoreceptor cell death in mouse models of retinitis pigmentosa, Proceedings of National Academy of Science (U.S.A.), 91:974-978; Buchi, E. R. (1992), Cell death in the rat retina after a pressure-induced ischaemia-reperfusion insult: an electron microscopic study. I. Ganglion cell layer and inner nuclear layer, Experimental Eye Research, 55:605-613; Quigley, H. A., Nickells. R. W., Kerrigan, L. A., Pease, M. E., Thibault, D. J. and Zack, D. J. (1995), Retinal ganglion cell death in experimental glaucoma and after axotomy occurs by apoptosis, Investigative Ophthalmology & Visual Science, 36:774-786). […] Alan R. Liss, Inc., New York; Collier, R., W. Waldron and Zigman, S. (1989), Temporal sequence of changes to the gray squirrel retina after near-UV exposure, Investigative Ophthalmology & Visual Science, 30:631-637), non-human primates (Tso, M. O. M. (1973), Photic maculopathy in rhesus monkey. A light and electron microscopic study. Investigative Ophthalmology & Visual Science, 12:17-34; Ham, W. T., Jr., Ruffolo, J. J., Jr., Mueller, H. A. and Guerry, D., III. (1980), The nature of retinal radiation damage: dependence on wavelength, power level and exposure time, Vision Research, 20:1105-1111; Sperling, H. G., Johnson, C. and Harwerth, R. S. (1980), Differential spectral photic damage to primate cones, Vision Research, 20:1117-1125: Sykes, S. M., Robison, W. G., Jr., Waxler, M. and Kuwabara, T. (1981), Damage to the monkey retina by broad spectrum fluorescent light, Investigative Ophthalmology & Visual Science, 20:425-434; Lawwill, T. (1982), Three major pathologic processes caused by light in the primate retina: A search for mechanisms, Transactions of the American Ophthalmology Society, 80:517-577), and man (Marshall, J. Hamilton, A. M. and Bird, A. C. (1975), Histopathology of ruby and argon laser lesions in monkey and human retina, British Journal of Ophthalmology, 59:610-630; Green, W. R. and Robertson, D. M. (1991), Pathologic findings of photic retinopathy in the human eye. American Journal of Ophthalmology, 112:520-27).

retinal laser burn = test: Retinal laser burn spread damage: argon laser, lesion area in outer nuclear layer after 48 hours; assay type: in vivo, Pigmented Long Evans rats
Excerpt: The eye is exposed to high-energy laser radiation during the performance of retinal photocoagulation therapy (grid, focal and […]) or during photodynamic therapy. This type of therapy is often employed during treatment of choroidal neovascularization, proliferative stages of diabetic retinopathy, retinopathy of prematurity, or to repair retinal holes or […]. Associated with this laser therapy is tissue destruction leading to vision deterioration. […] It is believed that this vision loss results directly from the expansion of the laser-induced lesion to surrounding normal neurosensory retina and RPE. Singlet oxygen and other reactive oxygen species as well as cytokines are generated in the area of the laser burn and thought to migrate laterally to cause collateral retinal damage. Retinal morphology changes in this area are similar to changes in our photo-oxidative retinopathy paradigm. […] Pigmented Long Evans rats were randomly assigned to control, vehicle or drug dosed groups. […] After a 48-hour recovery period, eyes were fixed, dehydrated, and embedded in plastic resin. Histological assessment of laser burns was performed by flatmounting the retina and sectioning the tissue in a plane tangential to the nerve fiber layer. Using this technique, the lesion area in the outer nuclear layer could be calculated using an image analysis system. […] The laser bum center was marked by; complete closure of all capillaries, arterioles and venuoles; perforation of Bruch's membrane; pyknosis and necrosis of all photoreceptor nuclei; and destruction of inner and outer segments. Spread of the lesion into peripheral retina consisted of shortening of outer segments, inner segment swelling, clumping of melanin granules in the RPE and choroid, and vacuolization of the RPE.

NMDA receptor = test: Binding affinity to the NMDA receptor; details: order of magnitude only
[3] = system: mechanical stress induced ischemia reperfusion; details: Arch Ophthal 1993; cited from earlier work
[4] = molecular target: NR1A/NR2B subtype of the polyamine binding site of the NMDA receptor (Homo sapiens, UniProt Q05586+Q13224); details: cited from earlier work
Chain of NR1A/NR2B subtype of the polyamine binding site of the NMDA receptor (Q13224 27-1484, other chains not shown): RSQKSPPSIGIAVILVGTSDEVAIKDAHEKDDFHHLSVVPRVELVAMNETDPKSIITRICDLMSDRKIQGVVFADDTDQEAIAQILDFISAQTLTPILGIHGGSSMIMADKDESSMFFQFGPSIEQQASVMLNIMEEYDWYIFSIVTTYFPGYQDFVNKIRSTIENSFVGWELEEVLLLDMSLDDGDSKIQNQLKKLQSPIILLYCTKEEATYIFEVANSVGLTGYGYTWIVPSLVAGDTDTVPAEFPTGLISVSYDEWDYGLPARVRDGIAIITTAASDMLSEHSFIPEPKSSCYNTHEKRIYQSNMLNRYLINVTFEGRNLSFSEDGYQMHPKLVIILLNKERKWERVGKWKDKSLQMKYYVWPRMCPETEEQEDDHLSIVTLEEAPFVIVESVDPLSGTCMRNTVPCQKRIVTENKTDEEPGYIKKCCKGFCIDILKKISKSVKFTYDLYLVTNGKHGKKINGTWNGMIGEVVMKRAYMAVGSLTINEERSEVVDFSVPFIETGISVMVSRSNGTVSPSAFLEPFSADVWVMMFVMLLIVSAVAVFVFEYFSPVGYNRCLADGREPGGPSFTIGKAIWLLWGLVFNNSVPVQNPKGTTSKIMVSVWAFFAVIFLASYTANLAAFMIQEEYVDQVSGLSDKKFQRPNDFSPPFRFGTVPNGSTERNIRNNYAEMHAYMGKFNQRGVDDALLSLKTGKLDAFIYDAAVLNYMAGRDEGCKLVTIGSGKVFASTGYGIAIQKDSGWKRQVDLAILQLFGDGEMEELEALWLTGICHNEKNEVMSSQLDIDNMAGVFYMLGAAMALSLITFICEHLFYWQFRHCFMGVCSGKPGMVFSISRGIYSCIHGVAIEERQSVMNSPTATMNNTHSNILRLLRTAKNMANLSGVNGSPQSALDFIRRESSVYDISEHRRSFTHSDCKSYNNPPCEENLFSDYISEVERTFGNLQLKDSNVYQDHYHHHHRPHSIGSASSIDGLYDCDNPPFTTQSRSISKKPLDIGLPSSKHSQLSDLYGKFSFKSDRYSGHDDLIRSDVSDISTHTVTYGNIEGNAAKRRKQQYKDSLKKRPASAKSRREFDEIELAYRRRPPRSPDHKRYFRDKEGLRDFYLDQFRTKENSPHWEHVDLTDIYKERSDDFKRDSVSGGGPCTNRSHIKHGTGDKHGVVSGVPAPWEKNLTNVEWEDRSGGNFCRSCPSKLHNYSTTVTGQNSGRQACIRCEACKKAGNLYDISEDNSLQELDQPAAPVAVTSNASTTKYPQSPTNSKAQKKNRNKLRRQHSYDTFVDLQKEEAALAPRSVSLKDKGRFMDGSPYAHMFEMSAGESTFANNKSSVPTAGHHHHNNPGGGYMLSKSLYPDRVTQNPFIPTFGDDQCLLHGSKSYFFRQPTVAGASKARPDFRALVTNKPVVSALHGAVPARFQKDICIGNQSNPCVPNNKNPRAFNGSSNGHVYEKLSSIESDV

[5] = system: laser induced thermal burns to the retina; details: cited from earlier work

## COCCOC(=O)C1=C(C)NC(C)=C(C(=O)OC(C)C)C1c1cccc([N+](=O)[O-])c1 (centres unmarked) [nimodipine]
[1]
  preventing light induced functional or morphological changes: no effect

## O[C@@H](CN1CCC(Cc2ccc(F)cc2)CC1)c1ccc(Cl)cc1 [R-eliprodil]
[2]; rat, in vivo
  potency relative to eliprodil (racemic): two-fold less potent
[2]; rat, in vivo, ip, 20 mg/kg
  Maximum a-wave response, % of normal: 38%
  Maximum b-wave response, % of normal: 36%
  protection of outer and inner retina function against light induced retinal degeneration: No significant protection
[2]; rat, in vivo, ip, 40 mg/kg
  Response amplitudes, fold higher than vehicle dosed rats: about 2 fold
  maximum a-wave response amplitude: 397.25 μV
  maximum b-wave response amplitude: 812.87 μV
  protection of outer and inner retina function against light induced retinal degeneration: significant protection
  response amplitudes, % of normal: ~50%
[2]; rat, in vivo, ip, 80 mg/kg
  Maximum a- and b-wave responses, % of normal: approximately 40%
  protection of outer and inner retina function against light induced retinal degeneration: No significant retinal protection
Retinal laser burn; 20 mg/kg IP
  lesion area smaller than in vehicle dosed rats: 16%
  significance of lesion area difference from vehicle: not significantly different
Retinal laser burn; 40 mg/kg IP
  Laser burn lesion area: 36,016 μ^2
  lesion area smaller than in vehicle dosed rats: 28%
  significance of lesion area difference from vehicle: significantly diflerent
Retinal laser burn
  reduction of collateral retinal damage around the laser burn (summary): significant reduction
NMDA receptor
  binding affinity to the NMDA receptor: nanomolar

## COc1ccc2c(c1)[C@]13CCCC[C@@H]1[C@H](C2)N(C)CC3 [dextromethorphan]
[3]
  protection of inner retina function and RPE function: moderately protected
  protective effect for outer retina function: no significant protective effect

## C[C@@H]([C@@H](O)c1ccc(O)cc1)N1CCC(O)(c2ccccc2)CC1 [CP-101,606]
[4]
  subtype preference of NMDA receptor block: preferentially block

## C[C@]12N[C@H](Cc3ccccc31)c1ccccc12 [MK-801, reference compound]
[2]; Experiment 1
  dose dependence of protection of outer and inner retina function: dose-dependent protection
[2]; Experiment 1, 2 mg/kg IP, vs vehicle
  protection of outer and inner retina function against light induced retinal degeneration: No significant protection
[2]; Experiment 1, 10 mg/kg IP, vs vehicle
  protection of outer and inner retina function against light induced retinal degeneration: No significant protection
[2]; Experiment 1, 20 mg/kg IP
  ERG responses compared with control (normal): not significantly different than control
[2]; Experiment 1, 20 mg/kg IP at 48, 24, 0 h before light, vs vehicle
  protection of outer and inner retina function against light induced retinal degeneration: significant protection
[2]; Experiment 1, 20 mg/kg IP, controls 734.05 μV
  maximum a-wave response amplitude: 537.93 μV
[2]; Experiment 1, 20 mg/kg IP, controls 1807 μV
  maximum b-wave response amplitude: 1449.77 μV
[2]; summary of Experiments 1 and 2
  rescue of RPE and photoreceptor cells (summary): Complete protection
[5]; 3 and 20 days post laser exposure
  prevention of photoreceptor loss: did not significantly prevent
[5]; at 60 days
  preventing the spread of laser induced thermal burns to the retina: minimally effective

## CC12CC3CC(C)(C1)CC(N)(C3)C2 [memantine, reference compound]
[2]; rat, in vivo
  dose dependence of protection of outer and inner retina function: dose-dependent protection
[2]; rat, in vivo, ip, 2 mg/kg
  protection of outer and inner retina function against light induced retinal degeneration: no significant protection
[2]; rat, in vivo, ip, 20 mg/kg
  ERG responses compared with control (normal): significantly lower than normal
  protection of outer and inner retina function against light induced retinal degeneration: significant protection

## prenylamine lactate
[1]
  preventing light induced functional or morphological changes: no effect

## Fc1ccc(C(c2ccc(F)cc2)N2CCN(C/C=C/c3ccccc3)CC2)cc1 [flunarizine]
[1]
  preventing light induced functional or morphological changes: moderately effective

## N=C(N)NC(=O)c1nc(Cl)c(N)nc1N [amiloride]
[1]
  preventing light induced functional or morphological changes: no effect

## CC(C(O)c1ccc(O)cc1)N1CCC(Cc2ccccc2)CC1 (centres unmarked) [ifenprodil]
[4]
  subtype preference of NMDA receptor block: preferentially block

## O[C@H](CN1CCC(Cc2ccc(F)cc2)CC1)c1ccc(Cl)cc1 [S-eliprodil]
[2]; rat, in vivo
  potency rank as retinoprotective agent in the series: most potent
  potency relative to eliprodil (racemic): two-fold more potent
[2]; rat, in vivo, ip, 5 mg/kg
  difference in ERG response amplitude compared to vehicle dosed rats: No significant difference
[2]; rat, in vivo, ip, 10 mg/kg
  Maximum a-wave response, % of normal: 64%
  Maximum b-wave response, % of normal: 76%
  protection of outer and inner retina function against light induced retinal degeneration: Significant protection
[2]; rat, in vivo, ip, 20 mg/kg
  Response amplitudes, fold higher than vehicle dosed rats: about 2 fold
  maximum a-wave response amplitude: 418.04 μV
  maximum b-wave response amplitude: 1015.95 μV
  protection of outer and inner retina function against light induced retinal degeneration: Significant protection
  response amplitudes, % of normal: approximately 62%
Retinal laser burn; 20 mg/kg IP
  Laser burn lesion area: 43,098.5 μ^2
  lesion area smaller than in vehicle dosed rats: 15%
  significance of lesion area difference from vehicle: not significantly different
Retinal laser burn
  reduction of collateral retinal damage around the laser burn (summary): devoid of significant efficacy
NMDA receptor
  binding affinity to the NMDA receptor: millimolar

## COC(=O)C1=C(C)NC(C)=C(C(=O)O[C@H]2CCN(Cc3ccccc3)C2)[C@H]1c1cccc([N+](=O)[O-])c1 [barnidipine]
[1]
  preventing light induced functional or morphological changes: no effect

## Cc1c(C)c2c(c(C)c1O)CC[C@@](C)(CCC[C@H](C)CCC[C@H](C)CCCC(C)C)O2 [alpha-tocopherol]
[1]
  preventing light induced functional or morphological changes: ineffective

## Cc1cccc(C)c1NC(=O)CN1CCN(CCCC(c2ccc(F)cc2)c2ccc(F)cc2)CC1 [lidoflazine]
[1]
  preventing light induced functional or morphological changes: no effect
